Data: US20160046592A1, “PHARMACEUTICAL COMPOSITION FOR THE TREATMENT OF DIABETES” (Ajinomoto Co., Inc., priority 2013, published 2016)
Structures can show the parent of a compound that is named as a salt.

system: Rat skeletal muscle-derived L6 myoblasts (differentiated into myotube cells); assay: Evaluation of glycogen accumulation in L6; type: cell-based; conditions: [14C] glycogen from D-[U-C14] glucose, 3 hours incubation, 100% = compound of Example 1 of WO/2011/058154 at 30 μM
Method: The glycogen accumulation activity was evaluated in skeletal muscle cells according to the published article (ANALYTICAL BIOCHEMISTRY, Vol. 261: 159-163, 1998) by the following method. Rat skeletal muscle-derived L6 myoblasts (ATCC) were seeded in a 96-well collagen-coated plate (IWAKI, 4860-010) by using a growth medium (10% FBS-containing α-MEM medium (NACALAI TESQUE, INC., 21444-05)) under a condition of 4×10^4 cells/100 μL/well. After culturing under conditions of 37° C. and 5% CO2 overnight, the medium was replaced with a differentiation medium (2% FBS-containing α-MEM medium), followed by culturing for 3 days to differentiate the myoblasts into myotube cells. On the day of evaluation, the medium was replaced with a glucose-deprived medium (0.1% BSA-containing DMEM medium (Gibco, 11966)). After culturing for 4 hours, the medium was replaced with assay media (0.1% BSA-containing DMEM medium (NACALAI TESQUE, INC., 08456-65)) containing 0.6% DMSO and one of the test compounds at a concentration which was twice the final evaluation concentration at 15 μL/well. Further, an assay medium containing D-[U—C14] glucose (PerkinElmer Inc., NEC042V) at […] was added at 15 μL/well to adjust the final volume to 30 μL/well. Then, the cells were incubated under conditions of 37° C. and 5% CO2 for 3 hours. After the incubation, each medium was removed by suction with an aspirator, and the wells were rinsed with PBS at 200 μL/well twice. Then, 1 N NaOH was added at 50 μL/well, and the cells were lysed by incubation at 60° C. for 10 minutes. After the temperature of the lysed cells was returned to room temperature, each whole cell lysate and […] glycogen (Sigma-Aldrich, G8876) at 5 μL/well were added to a Multiscreen HTS (Millipore, MSFCN6B) to which 100% ethanol was added in advance at 100 μL/well, followed by incubation at 4° C. for 20 minutes. After the incubation, aspiration was conducted by using Multiscreen HTS Vacuum Manifold (Millipore), followed by rinse with 66% ethanol at 200 μL/well twice. After ethanol remaining on the filter was completely removed by drying, MicroScint40 (PerkinElmer Inc.) was added at 50 μL/well, the amount of [14C] glycogen was measured with TopCountNXT (PerkinElmer Inc.). The activity of each test compound was calculated by the following method. Specifically, the relative activity (%) was calculated as 100×(B−A)/(C−A), where A represents a value (cpm) measured for a well not containing the compound but containing only DMSO, B represents a value measured for a well containing the compound and DMSO, and C represents a value measured for a well containing the compound of Example 1 of WO/2011/058154 at a final concentration of 30 μM. EC50 representing the concentration of the compound at which an increase in activity by 50% was caused was calculated using XLfit (idbs).

Compared with `COCCN(CC(=O)O)C(=O)c1cccc(COc2ccc(-c3cc(F)c(F)cc3SC)cc2)c1` [Example 6, 2-[[3-[[4-(4,5-Difluoro-2-methylsulfanyl-phenyl)phenoxy]methyl]benzoyl]-(2-methoxyethyl)amino]acetic Acid], `CNCCN(CC(=O)O)C(=O)c1cccc(COc2ccc(-c3cc(F)c(F)cc3SC)cc2)c1` [Example 28, 2-[[3-[[4-(4,5-Difluoro-2-methylsulfanyl-phenyl)phenoxy]methyl]benzoyl]-[2-(methylamino)ethyl]amino]acetic Acid Trifluoroacetate] is lower in EC50: 570 nM for the first, under 300 nM for the second. The second is the more potent here.

`CSc1cc(F)c(F)cc1-c1ccc(OCc2cccc(C(=O)N(CC(=O)O)Cc3ccccn3)c2)cc1` [Example 20, 2-[[3-[[4-(4,5-Difluoro-2-methylsulfanyl-phenyl)phenoxy]methyl]benzoyl]-(2-pyridylmethyl)amino]acetic Acid Trifluoroacetate] and `CSc1cc(F)c(F)cc1-c1ccc(OCc2cccc(C(=O)N(CC(=O)O)Cc3ncco3)c2)cc1` [Example 42, 2-[[3-[[4-(4,5-Difluoro-2-methylsulfanyl-phenyl)phenoxy]methyl]benzoyl]-(oxazol-2-ylmethyl)amino]acetic Acid] are within 1.5-fold of each other in EC50: 710 nM for the first, 880 nM for the second.

First: CSc1cc(F)c(F)cc1-c1ccc(OCc2cccc(C(=O)N(CC(=O)O)CC3CCNCC3)c2)cc1 [Example 35, 2-[[3-[[4-(4,5-Difluoro-2-methylsulfanyl-phenyl)phenoxy]methyl]benzoyl]-(4-piperidylmethyl)amino]acetic Acid Trifluoroacetate]
Second: CSc1cc(F)c(F)cc1-c1ccc(OCc2cccc(C(=O)N(CCN3CCCC3)CC(=O)O)c2)cc1 [Example 40, 2-[[3-[[4-(4,5-Difluoro-2-methylsulfanyl-phenyl)phenoxy]methyl]benzoyl]-(2-pyrrolidin-1-ylethyl)amino]acetic Acid Trifluoroacetate]
The EC50 of the first is 8.6-fold lower: 630 nM for the first, 5400 nM for the second.

`COC[C@H]1CC[C@@H](C(=O)O)N1C(=O)c1cccc(COc2ccc(-c3cc(F)c(F)cc3SC)cc2)c1` [Example 65, (2S,5R)-1-[3-[[4-(4,5-Difluoro-2-methylsulfanyl-phenyl)phenoxy]methyl]benzoyl]-5-(methoxymethyl)pyrrolidine-2-carboxylic Acid] gave an EC50 of 1800 nM.
